≈ marks a conversion by molar mass, not a printed value.
Tests used:
[1] = system: C. albicans 3153A biofilms; test: Biofilm killing by antifungals, CFU determination; type: cell-based, Candida albicans; details: for killing curve of biofilm: dose-dependent, 24 hrs challenge
Method: (§1) Biofilms of C. albicans 3153A cells were cultured in wells of microtiter plates in RPMI medium for 48 hrs (Ramage et al., Antimicrob. Agents Chemother. 45:2475-2479 (2001)), washed twice in PBS, pH 7.4, to remove nonadherent cells, and resuspended in 100 μl RPMI growth medium containing antifungals. After 24 hrs of antifungal challenge, the biofilms and cultures were washed twice, resuspended in 100 μl PBS, scraped, transferred into eppendorf tubes, vortexed and plated for colony forming unit (CFU) determination on YPD medium. […] This could lead to an underestimation of surviving cells by a factor of ≦10. In parallel, exponentially growing and stationary planktonic cultures were grown for 48 hrs in RPMI medium, and then antifungals were added for 24 hrs. The experiment was performed in triplicate and error bars indicate standard deviation (see FIGS. 1A-1B).
Biofilms were grown in microtiter plates and were treated with amphotericin B or chlorhexidine (100 μg/ml) for 24 hrs, after which they were washed and vortexed, as discussed above. The cells were then reinoculated into microtiter plates to form new biofilms. The new biofilms, derived from persisters that survived drug treatment, were again treated with the antifungal agents (as discussed above), and the procedure was repeated a total of 3 times. Biofilms were sampled for CFU determination before and after antifungal treatment. The experiment was performed in triplicate.
Tests were also performed to determine if yeast persisters were multidrug tolerant. Mature, 48 hr biofilms of C. albicans were challenged for 24 hrs with 100 μg/ml amphotericin B, 100 μg/ml chlorhexidine, or a combination of these two antifungal agents, using the same procedures discussed above. Biofilms were washed and sampled for CFU determination before and after antifungal treatment, as discussed above.

[2] = system: C. albicans 3153A planktonic cultures; test: Killing of exponentially growing and stationary planktonic cultures, CFU determination; type: cell-based, Candida albicans; details: planktonic cultures in RPMI, antifungal 24 hrs
Method: as §1

[3] = system: Biofilm-Deficient Strains of C. albicans; test: Persister formation by biofilm-deficient strains (survival to high levels of amphotericin B); type: cell-based, Candida albicans
Method: as §1
Given that persisters appeared only in the biofilm, their formation was dependent on the same genes/pathways that determine biofilm development. A large panel of biofilm-defective mutants was therefore tested for their ability to produce persisters by measuring survival to high levels of amphotericin B. These mutants were able to adhere to the surface of a microtiter plate, making it possible to assay in the biofilm survival protocol described above. All strains appeared to produce essentially normal levels of persisters (Table 1).

C. albicans = test: MIC; type: cell-based; details: Candida albicans

`CC[C@H](C)C[C@H](C)CCCCCCCCC(=O)N[C@H]1C[C@@H](O)[C@@H](NCCN)NC(=O)[C@@H]2[C@@H](O)CCN2C(=O)[C@H]([C@H](O)CCN)NC(=O)[C@H]([C@H](O)[C@@H](O)c2ccc(O)cc2)NC(=O)[C@@H]2C[C@@H](O)CN2C(=O)[C@H]([C@@H](C)O)NC1=O` [Caspofungin, caspofungin] gave a killing of biofilms ([1]; C. albicans 3153A biofilms, 24 hrs antifungal challenge, CFU) of at most 10 fold.
With `C[C@@H]1[C@H](O)[C@@H](C)/C=C/C=C/C=C/C=C/C=C/C=C/C=C/[C@H](O[C@@H]2O[C@H](C)[C@@H](O)[C@H](N)[C@@H]2O)C[C@@H]2O[C@](O)(C[C@@H](O)C[C@@H](O)[C@H](O)CC[C@@H](O)C[C@@H](O)CC(=O)O[C@H]1C)C[C@H](O)[C@H]2C(=O)O` [amphotericin B] the “cells invulnerable (persisters) in biofilm” value ([1]; biofilm, higher concentrations of the drug, 24 hrs) was “More than 1%”, the “killing curve of biofilm” value ([1]; CFU) was “biphasic killing” and the “killing of exponentially growing and stationary cells” value [2] was “effectively killed”. For the same compound, the Persisters ([3]; strain 3153A, control wild type) was “+++^1 (+++ indicates 1-2% survival)”, the Persisters ([3]; strain CAI4) was “+^3 (+ indicates 0.05-0.1% survival)” and the Persisters ([3]; strain CJN698 (bcr1 with BCR1)) was “++ (++ indicates 0.1-1% survival)”. For the same compound, the Persisters ([3]; strain CJN702 (bcr1)) was “++ (++ indicates 0.1-1% survival)”, the Persisters ([3]; strain CKY136 (efg1)) was “+++ (+++ indicates 1-2% survival)” and the Persisters ([3]; strain CKY138 (efg1 cph1Δ)) was “++ (++ indicates 0.1-1% survival)”. For the same compound, the Persisters ([3]; strain CKY357 (mkc1Δ)) was “++^2 (++ indicates 0.1-1% survival)”, the Persisters ([3]; strain DAY185) was “++ (++ indicates 0.1-1% survival)” and the Persisters ([3]; strain DAY286) was “++ (++ indicates 0.1-1% survival)”. For the same compound, the Persisters ([3]; strain GKO9 (mds3)) was “++ (++ indicates 0.1-1% survival)”, the Persisters ([3]; strain GKO443 (suv3)) was “++ (++ indicates 0.1-1% survival)” and the Persisters ([3]; strain GKO798 (kem1)) was “++ (++ indicates 0.1-1% survival)”. For the same compound, the Persisters ([3]; strain GKO814 (nup85)) was “++ (++ indicates 0.1-1% survival)”, the Persisters ([3]; strain MC191 (flo8/flo8)) was “+++ (+++ indicates 1-2% survival)” and the Persisters ([3]; strain MC195 (flo8 with FLO8-2)) was “+ (+ indicates 0.05-0.1% survival)”. For the same compound, the Persisters ([3]; strain MC245 (flo8/FLO8)) was “++ (++ indicates 0.1-1% survival)”.
`[H]/N=C(\N/C(=N/[H])NCCCCCCNC(=N)NC(=N)Nc1ccc(Cl)cc1)Nc1ccc(Cl)cc1` [chlorhexidine] was tested, and the “concentration above which killing of persisters was observed” value ([1]; biofilm, 24 hrs) was “above 100 μg/ml”, the “concentration at which the biofilm was completely sterilized” value ([1]; biofilm, 24 hrs) was 1000 µg/mL and the “killing curve of biofilm” value ([1]; CFU) was “biphasic killing”. The MIC (C. albicans) was 4 µg/mL (≈ 7.91 µM) and the “killing of exponentially growing and stationary cells” value [2] was “eliminated”.

From patent US20120252820A1, “METHODS OF TREATING FUNGAL INFECTIONS” (NORTHEASTERN UNIVERSITY, priority 2008, published 2012)
